Here are results for seven molecules from ChEMBL document CHEMBL1201862, “PubChem BioAssay data set” (2004).

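Exposure lasted 48 hours, with cells grown in 96-well plates and compounds tested at five concentrations. At the GI50, growth is halved.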 Activity calls are given as the source filed them. Rule as the data show it: active = GI50 up to about 1.1 µM and inactive = higher.

Among the test systems are HOP-62; NCI-H460; EKVX; IGROV-1; ACHN; HCT-15; PC-3; MOLT-4; SF-539; M14; HOP-92; SR; OVCAR-5; TK-10; MCF7; CCRF-CEM; NCI-H226; HCT-116; SF-268; SNB-19.
Assay in all cases: growth of human tumour cells (NCI), 48 h

For the molecule `N#C/C(=C\c1cc(O)c(O)c(O)c1)C(N)=O`, the GI50 with HOP-62 was > 87.3 µM (inactive); in the test with NCI-H460 it was > 79.3 µM (inactive); with EKVX, > 91 µM (inactive); in the test on IGROV-1, > 100 µM (inactive); in the test on ACHN, > 93.8 µM (inactive); in the test on HCT-15, over 74.5 µM. The GI50 is > 22.2 µM (inactive) in the test on PC-3; 52.5 µM (inactive) in the test with MOLT-4; > 100 µM (inactive) in the test with SF-539; > 90.2 µM (inactive) in the test on M14; 98.2 µM (inactive) in the test on HOP-92; > 47.5 µM (inactive) in the test on SR. The GI50 in the test on OVCAR-5 was > 100 µM (inactive); in the test on TK-10, > 100 µM (inactive); in the test with MCF7, > 39.4 µM (inactive); in the test with CCRF-CEM it was 38.3 µM (inactive); in the test with NCI-H226, > 100 µM (inactive); in the test with HCT-116, > 70.1 µM (inactive). Also, the GI50 with SF-268 is 67.3 µM (inactive); with SNB-19 it was > 100 µM (inactive).
As to `CSc1nc(SC)c2c(CN=[N+]=[N-])c(Br)n(Cc3ccccc3)c2n1`, the GI50 was 92.3 µM (inactive) with HOP-62; > 100 µM (inactive) with NCI-H460; > 100 µM (inactive) in the test on EKVX; > 100 µM (inactive) in the test on IGROV-1; > 100 µM (inactive) in the test on ACHN; over 100 µM in the test on HCT-15. Further, the GI50 was > 100 µM (inactive) in the test with PC-3; > 100 µM (inactive) in the test with MOLT-4; 32.8 µM (inactive) in the test on SF-539; > 100 µM (inactive) in the test on M14; 15 µM (inactive) with HOP-92; 26 µM (inactive) with SR. The GI50 with OVCAR-5 was > 100 µM (inactive); with TK-10 it was > 100 µM (inactive); with MCF7 it was > 100 µM (inactive); in the test on CCRF-CEM, 72.6 µM (inactive); with NCI-H226 it was 83.8 µM (inactive); in the test on HCT-116, 45.6 µM (inactive). Further, the GI50 with SF-268 and with SNB-19 was > 100 µM (inactive) in each case.
`C#CCCOC(=O)CC1=C(C)/C(=C/c2ccc([S+](C)[O-])cc2)c2ccc(F)cc21` (stereo not given): the GI50 in the test on HOP-62 was 27.2 µM (inactive); in the test on NCI-H460, 18 µM (inactive); in the test with EKVX it was 22.8 µM (inactive); with IGROV-1, 20.8 µM (inactive); in the test on ACHN it was 19.7 µM (inactive); in the test with HCT-15, 12.9 µM. The GI50 is 11.3 µM (inactive) in the test with PC-3; 17.5 µM (inactive) in the test on MOLT-4; 16.2 µM (inactive) in the test on SF-539; 16.2 µM (inactive) in the test on M14; 12.6 µM (inactive) with HOP-92; 3.47 µM (inactive) with SR. Besides, the GI50 is 34.2 µM (inactive) with OVCAR-5; 28.3 µM (inactive) in the test on TK-10; 19.4 µM (inactive) with MCF7; 15 µM (inactive) in the test with CCRF-CEM; 19 µM (inactive) with NCI-H226; 16.8 µM (inactive) in the test on HCT-116. Besides, the GI50 is 20.6 µM (inactive) with SF-268 and 13.6 µM (inactive) in the test on SNB-19.
Regarding `O=C1C=C/C(=N/c2ccccc2)c2ccccc21`, the GI50 was 11.2 µM (inactive) in the test on HOP-62; 3.32 µM (inactive) in the test with NCI-H460; 2.06 µM (inactive) in the test with EKVX; 5.25 µM (inactive) in the test with IGROV-1; 14.4 µM (inactive) with ACHN; 9.42 µM with HCT-15. Besides, the GI50 with PC-3 was 10.5 µM (inactive); in the test on MOLT-4, 5.41 µM (inactive); in the test on SF-539, 15.1 µM (inactive); with M14, 6.21 µM (inactive); in the test with HOP-92, 14.9 µM (inactive); with SR it was 11.4 µM (inactive). For the same molecule, the GI50 in the test with OVCAR-5 was 17.9 µM (inactive); with TK-10, 16.9 µM (inactive); in the test on MCF7, 5.74 µM (inactive); with CCRF-CEM, 4.29 µM (inactive); in the test on NCI-H226, 11.4 µM (inactive); in the test with HCT-116, 12.1 µM (inactive). Besides, the GI50 in the test with SF-268 was 11.3 µM (inactive); in the test on SNB-19, 21.8 µM (inactive).
For the molecule `CN(CCCN(C)Cc1ccc(Cl)c(Cl)c1)CCN1CCCC1`, the GI50 is 26.5 µM (inactive) with HOP-62; 16.9 µM (inactive) in the test on NCI-H460; 36.3 µM (inactive) in the test with EKVX; 27.7 µM (inactive) in the test with IGROV-1; 27.8 µM (inactive) with ACHN; 29 µM in the test with HCT-15. For the same molecule, the GI50 with PC-3 is 28.2 µM (inactive); with MOLT-4, 6.27 µM (inactive); with SF-539 it was 16.7 µM (inactive); with M14 it was 5.73 µM (inactive); in the test with HOP-92 it was 4.16 µM (inactive); in the test on SR it was 8.45 µM (inactive). The GI50 in the test with OVCAR-5 was 28.7 µM (inactive); in the test on TK-10 it was 24.2 µM (inactive); with MCF7, 18.4 µM (inactive); with CCRF-CEM, 7.11 µM (inactive); in the test on NCI-H226, 21.2 µM (inactive); with HCT-116, 12 µM (inactive). Also, the figures for the GI50 in the test with SF-268 and with SNB-19 were 27.5 µM (inactive) and 22.5 µM (inactive), respectively.
As to `CC(=O)C1=CC=C/C1=N\Nc1ccccc1`, the GI50 in the test on HOP-62 was 20.8 µM (inactive); in the test on NCI-H460, 11.6 µM (inactive); in the test with EKVX, 5.6 µM (inactive); in the test with IGROV-1, 7.4 µM (inactive); in the test with ACHN, 11.2 µM (inactive); in the test on HCT-15 it was 5.14 µM. Further, the GI50 in the test on PC-3 is 5.45 µM (inactive); in the test with MOLT-4, 3.67 µM (inactive); in the test on SF-539, 2.36 µM (inactive); with M14, 10.8 µM (inactive); with HOP-92, 11.7 µM (inactive); with SR, 0.543 µM (active). In addition, the GI50 in the test with OVCAR-5 is 7 µM (inactive); with TK-10 it was 7.14 µM (inactive); with MCF7 it was 1.29 µM (inactive); in the test on CCRF-CEM, 2.94 µM (inactive); in the test with NCI-H226, 17.3 µM (inactive); in the test with HCT-116, 4.99 µM (inactive). Also, the values for the GI50 in the test with SF-268 and in the test with SNB-19 were 7.43 µM (inactive) and 21.1 µM (inactive), respectively.
As to `O=C(Oc1cccc2cccnc12)c1cc2cc(CCl)ccc2oc1=O`, the GI50 in the test with HOP-62 is 44.3 µM (inactive); in the test with NCI-H460 it was 10.9 µM (inactive); in the test on EKVX, 2.4 µM (inactive); in the test with IGROV-1, 24.4 µM (inactive); with ACHN, 19 µM (inactive); in the test on HCT-15 it was 2.77 µM. Besides, the GI50 with PC-3 was 12.7 µM (inactive); with MOLT-4, 2.8 µM (inactive); in the test with SF-539 it was 18 µM (inactive); in the test on M14, 5.64 µM (inactive); in the test on HOP-92, 34.2 µM (inactive); in the test with SR, 4.27 µM (inactive). For the same molecule, the GI50 in the test on OVCAR-5 was 31.5 µM (inactive); in the test on TK-10 it was 25.5 µM (inactive); with MCF7, 3.14 µM (inactive); with CCRF-CEM, 0.277 µM (active); in the test on NCI-H226, 75.9 µM (inactive); with HCT-116, 3.4 µM (inactive). Further, the values for the GI50 in the test on SF-268 and with SNB-19 were 18.5 µM (inactive) and 43.7 µM (inactive), respectively.
